Measurements as given in PMC8878317, “Chemogenomics identifies acetyl-coenzyme A synthetase as a target for malaria treatment and prevention” (Cell Chemical Biology, 2022).

Key:
[1] = tested on: P. falciparum Dd2:T648M (CRISPR edited PfAcAS); test: Blood-stage dose-response assay, CRISPR-edited Dd2:T648M line; assay type: cell-based; details: Plasmodium falciparum, mean ± SD, n bioreplicates
Procedure: (§1) For in vitro–selected lines, drug susceptibility was measured by SYBR Green I–based assay ([Johnson et al., 2007]; [Smilkstein et al., 2004]). Ring-stage parasites were cultured for 72 hr at 1% hematocrit and 1% starting parasitemia in 384-well black clear-bottom plates containing test compounds plated in triplicate in 12-point serial dilutions. Lysis buffer (0.16% w/v saponin, 1.6% Triton X-100, 5 mM EDTA, and 20 mM Tris-HCl, pH 7.4) with SYBR Green I fluorescent dye (Invitrogen) was added, and fluorescence readings were taken (excitation at 494 nm, emission at 530 nm). Alternatively, Dd2-B2 ring-stage cultures at 0.3% parasitemia and 1% hematocrit were exposed for 72 hr to a range of ten drug concentrations that were 2-fold serially diluted in duplicates along with drug-free controls. Parasite survival was assessed by flow cytometry on an Accuri C6 (BD Biosciences) using SYBR Green and MitoTracker Deep Red FM (Life Technologies) as nucleic acid stain and vital dyes respectively. EC50 values were calculated using a nonlinear regression curve fit in Prism Software version 8 (GraphPad).
(§2) Mutant PfAcAS-A597V and PfAcAS-T648M parasites were generated using CRISPR/Cas9. The guide RNAs for PfAcAS-A597V (5′-[…]-3′; 5′-[…]-3′) and for PfAcAS-T648M (5′-[…]-3′) were designed using Benchling (https://benchling.com/) to targeting sites in PfAcAS that were 6-14 bp upstream of the A597 codon and 6 bp downstream of the T648 codon respectively. Complementary oligos encoding the gRNA sequences (5′- tatt[…]-3’ / 5’-aaac[…]-3’; 5’-tatt[…]-3’ / 5’-aaac[…]-3’ and 5’- tattg[…]-3’ / 5’-aaac[…]c-3’ ) were phosphorylated using T4 polynucleotide kinase and annealed (95°C for 5 min, then step down of 5°C/min to 25°C) prior to ligation into the BbsI-digested pDC2-coCas9-U6.2-hDHFR plasmid ([Lim et al., 2016]). The donor template for PfAcAS-A597V was synthesized (ThermoFisher) as a 700 bp Genestring fragment spanning position 1468 to 2168 of the PfAcAS gene, and the donor for PfAcAS-T648M synthesized as a 829 bp fragment spanning position 1468 to 2297 and inserted into the AatII/EcoRI sites of the pDC2-coCas9-gRNA-hDHFR plasmid by Gibson assembly. Ring-stage parasites (Dd2) at 5% parasitemia were transfected by electroporation (BioRad Gene Pulser II at 0.310 kV and 950 μF) with 50 μg of each plasmid (plasmid 1: pDC2-coCas9-AcAS-A597V-gRNA1-hDHFR, plasmid 2: pDC2-coCas9-gRNA2-hDHFR, or plasmid 3: pDC2-coCas9-AcAS-T648M-gRNA1-hDHFR), and parasites selected for 10 days with 2.5 nM WR99210 (Jacobus Pharmaceuticals), followed by removal of drug pressure. After confirmation of editing in the bulk culture, clones were isolated by serial limiting dilution and confirmed by Sanger sequencing after PCR amplification from genomic DNA using forward primer 5′-[…]-3′ and reverse primer 5′-[…]-3′ (for A597V) and 5′-[…]-3′ (for T648M).

P. falciparum Dd2-B2 = test: Blood-stage dose-response assay (72 hr), Dd2 / Dd2-B2 parent; assay type: cell-based; details: Plasmodium falciparum, DD2, read-out: Dd2-B2 parent EC50 ± SD (nM)
Procedure: (§3) The 3D7-A10 clone has been used in previous in vitro drug selection and sequencing efforts ([Cowell et al., 2018]). Dd2 parasites were obtained from T. Wellems (NIAID, NIH). Dd2-B2 is a genetically homogeneous line that was cloned from Dd2 by limiting dilution in the Fidock lab. Parasite strains were cultured in 3-5% human O+ hematocrit in RPMI 1640 (Life Technologies) supplemented with 28 mM NaHCO3, 25 mM HEPES, and hypoxanthine ([…]). Depending on the parasite line, the media either contained gentamycin (25 μg/mL), or no antibiotic and was additionally supplemented with 0.5% AlbuMAX II (Life Technologies) and/or O+ human serum (heat inactivated and pooled). Blood and serum products were obtained from Interstate Blood Bank. Cultures were maintained at 37°C in 1.1% O2, 4% CO2, and 95% N2. Parasite populations were synchronized by 5% sorbitol treatment ([Lambros and Vanderberg, 1979]).
as §1

P. falciparum 3D7-A10 = test: Blood-stage dose-response assay (SYBR Green I, 72 hr), 3D7 / 3D7-A10 parent; assay type: cell-based; details: Plasmodium falciparum, mean ± SD, n bioreplicates, read-out: 3D7-A10 parent EC50 ± SD
Procedure: as §3, §1

[2] = tested on: P. falciparum Dd2:A597V (CRISPR edited PfAcAS); test: Blood-stage dose-response assay, CRISPR-edited Dd2:A597V line; assay type: cell-based; details: Plasmodium falciparum, mean ± SD, n bioreplicates
Procedure: as §1, §2

HsAcAS WT = molecular target: T1, HsAcAS WT (Homo sapiens, UniProt Q9NR19); test: HsAcAS Rapid-Fire QQQ mass spectrometry assay; assay type: biochemical; details: for Km: read-out: Km (µM), HsWT
T1 construct: made in house; host or cells: Expi293 cells (pCDNA 3.1, transient transfection)
Procedure: The human form of acetyl-CoA synthetase was assayed in 100 mM HEPES (pH7.4), 100 mM NaCl, 250 mM KCl, 50 mM MgCl2, 1 mM DTT, 0.005% NP40, 400 μM ATP, 70 μM acetate, 40 μM CoA and 2 nM recombinant HsAcAS. Assay ready plates containing different concentrations of inhibitor were prepared using an Echo 550 acoustic dispenser (Labcyte Inc.), dispensing 150 nL of compound per well. Assays were conducted in a total volume of 15 μL for 30 min at room temperature before being quenched with the addition of 85 μL 1% formic acid containing 0.5 μg/mL n-Propionyl coenzyme A (Sigma P5397) as an internal standard. Reaction products were detected using a RapidFire 365 system (Agilent, Santa Clara, CA) coupled with a triple quadrupole mass spectrometer 6740 (Agilent).
The sipper was washed to minimize carryover with 0.1% TFA in deionized water followed by 0.1% TFA in acetonitrile/deionized water (95%/5%, v/v). The sipper was washed to minimize carryover with deionized water followed by acetonitrile. Aspiration time, load/wash time, elution time, and re-equilibration time were set to 600, 3000, 5000, and 500 ms, respectively, with a cycle time of approximately 10 s. The triple-quadrupole mass spectrometer with electrospray ion source was operated in positive multiple reaction monitoring (MRM) mode. The detailed setting for the mass spectrometer parameters was as follows: capillary voltage, 3000 V; gas temperature, 350°C; gas flow, 7 L/min; nebulizer, 40 psi; sheath gas temperature, 300°C′ sheath gas flow, 11 L/min; and nozzle voltage, 1500 V. The MRM transitions for acetyl-CoA as a reaction product were set as 810.1/303.1 & 810.1/428.1 (quantifier & qualifier with dwell time of 50 ms, 100V fragmentor, and collision energies of 30 & 28 eV respectively) and for n-propionyl-CoA as an internal standard as 824.2/317.2 & 824.2/428.0 (quantifier & qualifier with dwell time of 50 ms, 100V fragmentor, and collision energies of 32 & 26 eV respectively). The mass resolution window for both parental and daughter ions was set at as a unit (0.7 Da). Peak areas were integrated, and area ratios of acetyl-CoA to the internal standard (n-propionyl CoA) were used for quantitation. Data were converted to % inhibition relative to the uninhibited enzyme control and fitted to Equation 3.

PfAcAS WT = PfAcAS WT (Plasmodium falciparum, UniProt C6KTB4); test: EnzChek assay, recombinant PfAcAS WT (steady-state kinetics and IC50); assay type: biochemical, P. falciparum; details: for Km: substrate varied, other two saturating
Procedure: (§4) Steady-state kinetic measurements were conducted at room temperature using a PheraStar plate reader (BMG). The first step of the reaction of PfAcAS, which produces inorganic pyrophosphate (PPi) that is converted to two molecules of inorganic phosphate using a pyrophosphatase enzyme, was continuously monitored using the EnzChek Phosphate Assay Kit, which gives an absorbance readout at 360 nm (Figure 4A) ([Webb, 1992]). […] By adding CoA, the reaction rapidly proceeds to the second step resulting in further release of pyrophosphate, making the EnzChek assay a suitable option to continuously monitor the activity of PfAcAS. Typical kinetic assays were carried out in clear, flat-bottom, polystyrene, 384-well plates (Greiner) in an 80 μL reaction volume containing 100 mM HEPES (pH7.4), 100 mM NaCl, 250 mM KCl, 50 mM MgCl2, 1 mM DTT, 0.004% Tween 20, 0.5 U/mL pyrophosphatase, 0.1 mM MESG, 0.5 U/mL PNP, 2 mM ATP, 2 mM acetate, 0.5 mM CoA and 5 nM recombinant PfAcAS WT or 10 nM recombinant PfAcAS A597V or T648M. Assays were performed by adding 40 μL of a 2-times concentrated substrate mixture including MESG to all wells, and the reactions started by adding 40 μL of a 2-times concentrated reaction mixture containing all other components. The reactions were carried out for 2 to 4 hr with absorbance readings at 360 nm every two to four minutes. Reaction rates were extracted from the linear phase of activity, usually using 10 to 20 points between times of 30 and 100 min of the reactions. Using a phosphate standard curve obtained under the same buffer conditions used for the PfAcAS reactions (Figure S5A), the rates were then converted to velocity per second, conversion of one nanomolar of phosphate, per nanomolar of enzyme, per second. The substrates Km values were determined by varying the concentration of one of the substrates at saturating concentration of the other two substrates. Steady-state data were fitted using the nonlinear, least-squares, curve-fitting programs of Sigma-Plot for Windows, version 14.0. Individual saturation curves were fit to Equation 1(Equation 1) v=VS/K+S where V is the maximal velocity, S is the substrate concentration and K is the Michaelis constant for the substrate (Km). Individual saturation curves displaying substrate inhibition were fit to Equation 2(Equation 2) v=VS/K+S×(1+S/Ks) where Ks is the substrate inhibition constant.
(§5) To determine the steady-state inhibition parameters and patterns associated with both inhibitors, PfAcAS activity was studied in the presence of variable concentrations of one substrate, ATP, acetate or CoA, fixed saturating concentration of the other two substrates (acetate and CoA, ATP and CoA, or ATP and acetate) and several fixed concentrations of inhibitor. Assay ready plates containing different concentrations of inhibitor were prepared using an Echo 550 acoustic dispenser (Labcyte Inc.). The assays were carried out as described in the previous section. […] For better comparison between both inhibitors and proteins, the ymin was fixed to zero and the ymax to 100. Inhibition data showing linear, competitive patterns in double-reciprocal plots were fit to Equation 4(Equation 4) v=VS/K(1+I/Ki)+S where Ki is the dissociation constant for the enzyme-inhibitor complex. Inhibition data showing linear, mixed inhibition patterns in double-reciprocal plots were fit to Equation 5(Equation 5) v=VS/K(1+I/Kis)+S(1+I/Kii) where Kis is the dissociation constant for the free enzyme-inhibitor complex and Kii is the dissociation constant for the enzyme-substrate-inhibitor complex. Inhibition data showing linear, uncompetitive patterns in double-reciprocal plots were fit to Equation 6(Equation 6) v=VS/K+S(1+I/Ki)

PfAcAS A597V = molecular target: T2, PfAcAS A597V (Plasmodium falciparum, UniProt C6KTB4, A597V); test: EnzChek assay, recombinant PfAcAS A597V; assay type: biochemical, P. falciparum; details: substrate varied, other two saturating
T2 sequence (C6KTB4 1-997 A597V): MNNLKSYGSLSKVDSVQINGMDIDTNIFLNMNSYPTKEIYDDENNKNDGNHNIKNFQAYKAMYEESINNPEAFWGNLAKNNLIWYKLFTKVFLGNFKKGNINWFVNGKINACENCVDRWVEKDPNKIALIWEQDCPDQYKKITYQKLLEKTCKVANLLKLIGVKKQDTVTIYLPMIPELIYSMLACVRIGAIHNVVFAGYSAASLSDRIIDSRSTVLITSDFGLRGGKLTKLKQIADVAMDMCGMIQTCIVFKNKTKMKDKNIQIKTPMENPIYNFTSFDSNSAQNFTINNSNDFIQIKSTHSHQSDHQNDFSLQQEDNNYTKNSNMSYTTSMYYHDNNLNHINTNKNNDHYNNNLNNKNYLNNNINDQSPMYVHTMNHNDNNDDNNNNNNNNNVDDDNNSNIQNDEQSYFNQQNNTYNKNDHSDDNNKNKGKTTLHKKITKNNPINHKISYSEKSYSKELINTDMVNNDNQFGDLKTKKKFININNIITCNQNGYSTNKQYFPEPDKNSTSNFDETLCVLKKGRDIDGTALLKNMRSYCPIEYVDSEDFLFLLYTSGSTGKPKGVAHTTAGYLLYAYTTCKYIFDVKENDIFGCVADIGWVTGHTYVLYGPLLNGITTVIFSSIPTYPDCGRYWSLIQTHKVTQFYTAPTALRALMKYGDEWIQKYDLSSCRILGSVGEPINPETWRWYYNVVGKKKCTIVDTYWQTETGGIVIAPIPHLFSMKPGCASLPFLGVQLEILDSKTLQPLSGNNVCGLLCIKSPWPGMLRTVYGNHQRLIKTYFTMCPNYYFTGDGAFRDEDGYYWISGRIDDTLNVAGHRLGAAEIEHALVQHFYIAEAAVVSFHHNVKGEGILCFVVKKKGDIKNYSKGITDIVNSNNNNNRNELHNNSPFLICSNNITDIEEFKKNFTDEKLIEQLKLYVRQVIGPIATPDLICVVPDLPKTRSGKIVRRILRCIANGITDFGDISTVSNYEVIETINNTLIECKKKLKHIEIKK
Procedure: as §4, §5

PfAcAS T648M = molecular target: T3, PfAcAS T648M (Plasmodium falciparum, UniProt C6KTB4, T648M); test: EnzChek assay, recombinant PfAcAS T648M; assay type: biochemical, P. falciparum; details: substrate varied, other two saturating
T3 sequence (C6KTB4 1-997 T648M): T2 sequence (C6KTB4 1-997 A597V)
Procedure: as §4, §5

T1 sequence (Q9NR19 whole entry): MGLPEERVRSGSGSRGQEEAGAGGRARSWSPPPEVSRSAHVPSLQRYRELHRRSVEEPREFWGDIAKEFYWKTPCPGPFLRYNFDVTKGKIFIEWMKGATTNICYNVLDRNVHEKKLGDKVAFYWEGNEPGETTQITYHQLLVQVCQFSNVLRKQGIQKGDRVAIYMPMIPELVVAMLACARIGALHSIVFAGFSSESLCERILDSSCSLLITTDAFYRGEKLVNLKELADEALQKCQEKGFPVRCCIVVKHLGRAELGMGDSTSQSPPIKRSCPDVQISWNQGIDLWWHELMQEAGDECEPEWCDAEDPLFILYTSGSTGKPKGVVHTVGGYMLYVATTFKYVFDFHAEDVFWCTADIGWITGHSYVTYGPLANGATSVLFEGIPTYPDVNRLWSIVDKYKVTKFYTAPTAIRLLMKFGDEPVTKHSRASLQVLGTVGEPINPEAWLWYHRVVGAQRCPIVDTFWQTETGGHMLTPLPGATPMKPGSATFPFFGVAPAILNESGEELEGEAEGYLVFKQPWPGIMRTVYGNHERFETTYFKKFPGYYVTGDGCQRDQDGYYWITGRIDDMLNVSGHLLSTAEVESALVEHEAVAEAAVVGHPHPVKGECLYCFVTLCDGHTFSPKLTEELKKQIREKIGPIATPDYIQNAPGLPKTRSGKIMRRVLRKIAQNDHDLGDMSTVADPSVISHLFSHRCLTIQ

SMILES	EC50 [1]	EC50 (P. falciparum Dd2-B2)	EC50 (P. falciparum 3D7-A10)	EC50 [2]	Km (HsAcAS WT)	Ki (µM), substrate inhibition, HsWT (HsAcAS WT; substrate inhibition constant)	Ki (µM), substrate inhibition, PfAcAS WT (PfAcAS WT; substrate inhibition constant)	Km (PfAcAS WT)	Km (PfAcAS A597V)	Vmax (s-1), PfAcAS A597V (PfAcAS A597V)	Km (PfAcAS T648M)
C[C@H]1[C@@H](O)O[C@@H]2O[C@@]3(C)CC[C@H]4[C@H](C)CC[C@@H]1[C@@]24OO3 [Dihydroartemisinin]	0.0037 ± 0.003 µM	4.6 ± 3 nM	0.0026 ± 0.0016 µM	0.0056 ± 0.0035 µM	–	–	–	–	–	–	–
CC(C)(COP(=O)(O)OP(=O)(O)OC[C@H]1O[C@@H](n2cnc3c(N)ncnc32)[C@H](O)[C@@H]1OP(=O)(O)O)[C@@H](O)C(=O)NCCC(=O)NCCS [CoA]	–	–	–	–	36 ± 5 µM	1000 ± 190 µM	2700 ± 310 µM	42 µM	61 ± 6 µM	0.84 ± 0.05 s⁻¹	82 ± 6 µM
CC(=O)O [acetate]	–	–	–	–	61 ± 4 µM	–	–	72 µM	400 ± 12 µM	0.54 ± 0.05 s⁻¹	190 ± 8 µM
